The record followed here is US20250026724A1, “(1,4,5-TRISUBSTITUTED 1H-PYRAZOL-3-YL)OXY-2-ALKYLTHIOALKYL ACIDS AND -ALKYL ACID DERIVATIVES, SALTS THEREOF AND USE THEREOF AS ACTIVE HERBICIDAL INGREDIENTS” (BAYER AKTIENGESELLSCHAFT, priority 2021, published 2025).

Common to all, as to test: Post-emergence herbicidal action, greenhouse pot trial
Type in all cases: in vivo

Assay [1] concerns Polygonum convolvulus (POLCO). Conditions: visual rating after about 3 weeks; for pest or weed control at 320 g/ha: read-out: Post-emergence effect at 320 g/ha against POLCO in %. The method, then: (§1) Seeds of monocotyledonous and dicotyledonous weeds and crop plants are placed in sandy loam in plastic or organic planting pots, covered with soil and cultivated in a greenhouse under controlled growth conditions. 2 to 3 weeks after sowing, the trial plants are treated at the one-leaf stage. The compounds of the invention, formulated in the form of wettable powders (WP) or as emulsion concentrates (EC), are then sprayed onto the green parts of the plants as aqueous suspension or emulsion with addition of 0.5% additive at a water application rate equivalent to 600 l/ha. After about 3 weeks of keeping the trial plants in the greenhouse under optimum growth conditions, the effect of the preparations is rated visually in comparison to untreated controls. For example, 100% activity=the plants have died, 0% activity=like control plants.
(§2) Tables B1 to B14 below show the effects of selected compounds of the general formula (I) according to Table 1 on various harmful plants and at an application rate corresponding to 320 g/ha or lower, which were obtained by the trial procedure specified above. The appendices “a”, “b” and “c” give differentiation by dosage used with otherwise the same harmful plants tested.
(§3) As shown by results from Tables B1 to B19, inventive compounds of the general formula (I) in the case of post-emergence treatment have good herbicidal efficacy against harmful plants, for example Abutilon theophrasti (ABUTH), Alopecurus myosuroides (ALOMY), Amaranthus retroflexus (AMARE), Avena fatua (AVEFA), Digitaria sanguinalis (DIGSA), Echinochloa crus-galli (ECHCG), Bassia scoparia (KCHSC), Lolium rigidum (LOLRI), Matricaria inodora (MATIN), Pharbitis purpurea (PHBPU), Polygonum convolvulus (POLCO), Setaria viridis (SETVI), Veronica persica (VERPE) and Viola tricolor (VIOTR) at an application rate of 320 g of active substance or less per hectare, and good crop plant compatibility in the case of organisms such as Oryza sativa (ORYSA), Zea mays (ZEAMX), Brassica napus (BRSNW), Glycine max (GLXMA) and Triticum aestivum (TRZAS) at an application rate of 320 g or less per hectare.

The test system of assay [2] is Matricaria inodora (MATIN). Conditions: visual rating after about 3 weeks; for pest or weed control at 80 g/ha / pest or weed control at 320 g/ha: Tripleurospermum inodorum, 504 h; for pest or weed control at 80 g/ha: read-out: Post-emergence effect at 80 g/ha against MATIN in %; for pest or weed control at 320 g/ha: read-out: Post-emergence effect at 320 g/ha against MATIN in %. The method, then:
as §1, §2, §3

Assay [3] has as its system Amaranthus retroflexus (AMARE). The note with it: visual rating after about 3 weeks; for pest or weed control at 320 g/ha / pest or weed control at 80 g/ha: Amaranthus retroflexus, 504 h; for pest or weed control at 320 g/ha: read-out: Post-emergence effect at 320 g/ha against AMARE in %; for pest or weed control at 80 g/ha: read-out: Post-emergence effect at 80 g/ha against AMARE in %. The method, then:
as §1, §2, §3

For assay [4], the system named is Pharbitis purpurea (PHBPU). Conditions: visual rating after about 3 weeks; for pest or weed control at 320 g/ha / pest or weed control at 80 g/ha: Ipomoea purpurea, 504 h; for pest or weed control at 320 g/ha: read-out: Post-emergence effect at 320 g/ha against PHBPU in %; for pest or weed control at 80 g/ha: read-out: Post-emergence effect at 80 g/ha against PHBPU in %. The method, then: as §1, §2, §3

Assay [5] deals with Echinochloa crus-galli (ECHCG). Conditions: visual rating after about 3 weeks; for pest or weed control at 320 g/ha: read-out: Post-emergence effect at 320 g/ha against ECHCG in %. The method, then:
as §1, §2, §3

Assay [6] relates to Digitaria sanguinalis (DIGSA). Conditions: visual rating after about 3 weeks; for pest or weed control at 320 g/ha: Digitaria sanguinalis, 504 h, read-out: Post-emergence effect at 320 g/ha against DIGSA in %. The method, then: as §1, §2, §3
The next assay relates to Bassia scoparia (KCHSC). Conditions: Bassia scoparia, 504 h, read-out: Post-emergence effect against KCHSC. The method, then:
as §1, §2, §3

For a further assay, the system named is Viola tricolor (VIOTR). The method, then: as §1, §2, §3
The next assay deals with Setaria viridis (SETVI). The note with it: 320 g/ha, visual rating after about 3 weeks; for pest or weed control at 320 g/ha: Setaria viridis, 504 h, read-out: Post-emergence effect at 320 g/ha against SETVI in %. The method, then: as §1, §2, §3
The test system of assay [7] is Abutilon theophrasti (ABUTH). The note with it: visual rating after about 3 weeks; for pest or weed control at 320 g/ha: read-out: Post-emergence effect at 320 g/ha against ABUTH in %. The method, then: as §1, §2, §3
The subject of a further assay is Avena fatua (AVEFA). The note with it: Avena fatua, 504 h, 320 g/ha, visual rating after about 3 weeks, read-out: Post-emergence effect at 320 g/ha against AVEFA in %. The method, then:
as §1, §2, §3

Where [8] appears, read: Echinochloa crus-galli, 504 h, 320 g/ha.
Setting [9] is: Viola tricolor, 504 h, 80 g/ha, read-out: Post-emergence effect against VIOTR.
The mark [10] stands for this setting: Viola tricolor, 504 h, 320 g/ha, read-out: Post-emergence effect against VIOTR.
Setting [11] is: Fallopia convolvulus, 504 h, 320 g/ha.
The mark [12] stands for this setting: Abutilon theophrasti, 504 h, 320 g/ha.

Each structure is given as a SMILES string.

For `CCOC(=O)C(Oc1nn(-c2ncccc2F)c(-c2ccc(F)nc2)c1Br)SC` (single isomer, unassigned) [Example I-29], the “Post-emergence effect at 80 g/ha against POLCO in %” value in assay [1] (80 g/ha) came out at 90%. Moreover, the “Post-emergence effect at 320 g/ha against POLCO in %” value in assay [1] (320 g/ha) was 90%. For the same molecule, in [2] (320 g/ha), the “Post-emergence effect at 320 g/ha against MATIN in %” value is 80%. Besides, the “Post-emergence effect at 320 g/ha against AMARE in %” value in assay [3] (320 g/ha) is 80%. For the same molecule, the “Post-emergence effect at 320 g/ha against PHBPU in %” value in [4] (320 g/ha) turned out to be 90%. In addition, the “Post-emergence effect at 320 g/ha against ECHCG in %” value in assay [5] (320 g/ha) came out at 90%. Besides, the “Post-emergence effect at 320 g/ha against DIGSA in %” value in [6] (320 g/ha) stood at 90%. Besides, in the assay on Bassia scoparia (KCHSC) (80 g/ha), the pest or weed control at 80 g/ha was 80%. The pest or weed control at 320 g/ha in the assay on Bassia scoparia (KCHSC) came to 90%. Further, the “Post-emergence effect against VIOTR” value in the assay with Viola tricolor (VIOTR) (80 g/ha) amounted to 80%; in the assay on Viola tricolor (VIOTR) (320 g/ha) it was 90%. For the same molecule, in the assay with Setaria viridis (SETVI), the “Post-emergence effect at 320 g/ha against SETVI in %” value worked out at 90%. Further, the “Post-emergence effect at 320 g/ha against ABUTH in %” value in assay [7] (320 g/ha) came to 90%.
`CCOC(=O)C(Oc1nn(-c2cc(F)ccc2F)c(-c2cncc(F)c2)c1I)SC` (stereo not shown) [Example I-02]: the pest or weed control at 80 g/ha (in assay [2]; with Viola tricolor (VIOTR) (setting [9])) was 80% in each case. The pest or weed control at 320 g/ha in [2] (320 g/ha) was determined as 90%; in [5] (setting [8]), 90%; with Viola tricolor (VIOTR) (setting [10]) it was 90%; in the assay on Setaria viridis (SETVI) it was 80%.
`COC(=O)C(Oc1nn(-c2cc(F)ccc2F)c(-c2cncc(F)c2)c1Br)SC` (stereo not shown) [Example I-07]: the pest or weed control at 80 g/ha in [2] worked out at 80%; with Viola tricolor (VIOTR) (setting [9]), 90%. Moreover, the pest or weed control at 320 g/ha (in assay [2] (320 g/ha); in assay [5] (setting [8]); in [6] (320 g/ha); in the assay on Viola tricolor (VIOTR) (setting [10]); in the assay on Setaria viridis (SETVI)) was 90% in each case. Moreover, the pest or weed control at 20 g/ha with Viola tricolor (VIOTR) (Viola tricolor, 504 h, 20 g/ha, read-out: Post-emergence effect against VIOTR) worked out at 80%.
Consider `CCOC(=O)C(Oc1nn(-c2ncccc2F)c(-c2ccc(F)nc2)c1C(F)(F)F)SC` (stereo not shown) [Example I-09], for which the pest or weed control at 320 g/ha in assay [1] (setting [11]) was 90%; in assay [2] (320 g/ha) it was 80%; in assay [4] (320 g/ha), 90%; in assay [5] (setting [8]), 80%; in the assay on Viola tricolor (VIOTR) (setting [10]), 90%; in assay [7] (setting [12]), 80%.
Take `CCOC(=O)C(Oc1nn(-c2ncccc2F)c(-c2ccc(F)cc2F)c1Br)SC` (stereo not shown) [Example I-14]: the pest or weed control at 320 g/ha in assay [1] (setting [11]) stood at 90%; in [3] (320 g/ha), 80%; in assay [4] (320 g/ha), 80%; in assay [6] (320 g/ha), 80%; in the assay on Setaria viridis (SETVI), 80%; in [7] (setting [12]) it was 80%.
As to `CCOC(=O)C(Oc1nn(-c2ncccc2F)c(-c2ccc(F)nc2)c1I)SC` (stereo not shown) [Example I-18], the pest or weed control at 80 g/ha in [1] (Fallopia convolvulus, 504 h, 80 g/ha, read-out: Post-emergence effect at 80 g/ha against POLCO in %) is 90%; in assay [3] it was 80%; in assay [4], 80%; with Viola tricolor (VIOTR) (setting [9]) it was 90%. The pest or weed control at 320 g/ha stood at 90% in assay [1] (setting [11]); 90% in assay [3] (320 g/ha); 90% in [4] (320 g/ha); 100% in assay [5] (setting [8]); 80% in assay [6] (320 g/ha); 90% with Viola tricolor (VIOTR) (setting [10]). For the same molecule, the pest or weed control at 320 g/ha (in the assay with Setaria viridis (SETVI); in assay [7] (setting [12])) was 90% throughout.
For `CCOC(=O)C(Oc1nn(-c2ncccc2F)c(-c2ccc(F)nc2)c1C1CC1)SC` (stereo not shown) [Example I-20], the pest or weed control at 80 g/ha in [3] was determined as 80%; with Viola tricolor (VIOTR) (setting [9]) it was 80%; in assay [7] (Abutilon theophrasti, 504 h, 80 g/ha, read-out: Post-emergence effect at 80 g/ha against ABUTH in %) it was 80%. Moreover, the pest or weed control at 320 g/ha was 80% in assay [3] (320 g/ha), 90% in assay [5] (setting [8]), 90% with Viola tricolor (VIOTR) (setting [10]) and 90% in [7] (setting [12]).
As for `CSC(Oc1nn(-c2ccccc2F)c(-c2ccc(F)nc2)c1I)C(=O)O` (stereo not shown) [Example I-21], the pest or weed control at 320 g/ha in [1] (setting [11]) turned out to be 80%; in [3] (320 g/ha), 90%; in assay [5] (setting [8]) it was 90%; with Viola tricolor (VIOTR) (setting [10]) it was 90%; with Setaria viridis (SETVI), 90%; in assay [7] (setting [12]) it was 80%. The pest or weed control at 80 g/ha in the assay with Viola tricolor (VIOTR) (setting [9]) worked out at 80%.
As for `CSC(Oc1nn(-c2ncccc2F)c(-c2ccc(F)nc2)c1C1CC1)C(=O)O` (stereo not shown) [Example I-33], the pest or weed control at 320 g/ha (in the assay on Avena fatua (AVEFA); in assay [5] (setting [8]); in the assay with Viola tricolor (VIOTR) (setting [10])) was 80% each time.
For the molecule `CSC(Oc1nn(-c2ncccc2F)c(-c2ccc(F)nc2)c1Br)C(=O)O` (stereo not shown) [Example I-34], the pest or weed control at 320 g/ha in assay [1] (setting [11]) came to 90%; in assay [2] (320 g/ha) it was 80%; in assay [3] (320 g/ha), 80%; in assay [4] (320 g/ha), 90%; in assay [5] (setting [8]), 90%; in [6] (320 g/ha) it was 90%. Also, the pest or weed control at 320 g/ha in the assay on Bassia scoparia (KCHSC) amounted to 80%; with Viola tricolor (VIOTR) (setting [10]), 90%; with Setaria viridis (SETVI) it was 90%; in [7] (setting [12]) it was 90%. In addition, the pest or weed control at 80 g/ha in [4] was found to be 80%; in assay [5] (Echinochloa crus-galli, 504 h, 80 g/ha, read-out: Post-emergence effect at 80 g/ha against ECHCG in %) it was 80%. Also, the “Post-emergence effect at 80 g/ha against DIGSA in %” value in assay [6] (80 g/ha) was determined as 80%.
Regarding `CSC(Oc1nn(-c2ncccc2F)c(-c2ccc(F)nc2)c1C(F)(F)F)C(=O)O` (stereo not shown) [Example I-38], the pest or weed control at 320 g/ha stood at 90% in assay [1] (setting [11]), 80% in assay [2] (320 g/ha), 90% with Viola tricolor (VIOTR) (setting [10]) and 80% in assay [7] (setting [12]).
Turning to `CCOC(=O)C(Oc1nn(-c2ccccc2F)c(-c2ccc(F)nc2)c1I)SC` (stereo not shown) [Example I-68], the pest or weed control at 320 g/ha in assay [1] (setting [11]) came out at 80%; in [3] (320 g/ha), 90%; in [5] (setting [8]), 90%; in [6] (320 g/ha), 80%; in the assay on Viola tricolor (VIOTR) (setting [10]), 90%; in the assay with Setaria viridis (SETVI) it was 90%.
